Experiments:
[1] = test system: Plasmodium falciparum; test: Hit confirmation in dose-response curve in NF54 nanoGlo assay, at 72h; assay type: functional, organism-based, Erythrocyte; set-up: timepoint 72 hour
[2] = test system: Plasmodium falciparum; test: Hit confirmation in dose-response curve in NF54 nanoGlo assay, at 12h; assay type: functional, organism-based, Erythrocyte; set-up: timepoint 12 hour
[3] = Hit confirmation in dose-response curve in HepG2 cytotoxicity assay, at 72h; assay type: toxicity, cell-based; set-up: timepoint 72 hour; settings: human, HepG2 cells
[4] = test system: Plasmodium falciparum; test: Hit confirmation in dose-response curve in Dd2 pLDH assay, at 72h; assay type: functional, organism-based; set-up: timepoint 72 hour; settings: Dd2, Erythrocyte
[5] = test system: Plasmodium falciparum; test: Hit confirmation in dose-response curve in NF54 pLDH assay, at 72h; assay type: functional, organism-based; set-up: timepoint 72 hour; settings: NF54, Erythrocyte
[6] = Plasmodium falciparum, NF54, Erythrocyte, 72 h
[7] = Plasmodium falciparum, NF54, Erythrocyte, 12 h

SMILES | IC50 [1, 6] [µM] | IC50 [2, 7] [µM] | IC50 [4] [µM] | IC50 [5] [µM] | IC50 ([1]; erythrocyte) [µM] | IC50 ([2]; erythrocyte) [µM] | IC50 at 72 h [3] [µM]
Cc1cc(OCCOCCNCCN)cc(C(C)C)c1 | 4.68 | > 10 | 10.7 | > 10 |  |  | > 10
COc1cc2ncc3c(-c4ccc(C)c(C)c4)n[nH]c3c2cc1OC | 4.27 | 7.59 | 5.25 | > 10 |  |  | > 10
COc1nc(NC[C@H]2CCCN2C(C)C)ncc1F | 1.32 | > 10 | > 10 | 1.7 |  |  | > 10
CN1CC[C@H](CN(C)Cc2ccc3cc(O)ccc3c2)C1 | 1.78 | 4.27 | 3.02 | 0.832 |  |  | > 10
Cc1ccc(C)c(-n2cnc(=O)n2[C@H]2CCN(C3CC3)C2=O)c1 | 2.95 | > 10 | 5.75 | 8.32 |  |  | > 10
CCOC1CC(NC2CC(c3ccc(F)cc3)C2)C12CCC2 (configuration not stated) | 5.01 | 6.31 | 2.63 | 3.63 |  |  | > 10
COc1ccc(S(=O)(=O)N2CCC(c3cc(N)on3)CC2)cc1Cl | 1.82 | > 10 | 3.89 | 6.31 |  |  | > 10
Cc1oc(-c2ccn[nH]2)cc1S(=O)(=O)Nc1ccc(F)c(Cl)c1 | 5.37 | 2.57 | > 10 | > 10 |  |  | > 10
CC1([C@@](O)(C#CC[N+]2(C)CCCCC2)c2ccccc2)CCCC1 | 2.19 | > 10 | 1.26 | 1.41 |  |  | > 10
CCOC(=O)c1cn(CC)c2cc(NC3CCCCC3)c(F)cc2c1=O | 0.724 | > 10 | 0.891 | 2.29 |  |  | > 10
Cc1ccc(C(F)(F)C(=O)NCCC(=O)NS(C)(=O)=O)cc1 | 2.75 | > 10 | > 10 | 0.447 |  |  | > 10
Cc1cccc2c(-c3cc(N)nc(N)n3)c[nH]c12 | 1 | 3.16 | 1.1 | 1.2 |  |  | > 10
COc1cc(CNCCCN2CCOCC2)ccc1OCc1ccc(Cl)cc1 | 2.88 | 6.03 | 2.95 | 4.47 |  |  | > 10
COc1ccc(CN2CC[C@@H]3C(=O)NCCCCCCN(Cc4ccncc4)[C@@H]3C2)cc1Cn1ccnc1 | 1.1 | 7.08 | 1.17 | 1.15 |  |  | > 10
CCCN1CCC(NCc2ccc(-c3cccc(Cl)c3Cl)o2)CC1 | 2.63 | 7.08 | 2.63 | 3.55 |  |  | > 10
C[C@H]1[C@@H]2[C@@H](O)C([C@H](C)C(=O)NC3CCCCC3)CC[C@@]2(C)CC[C@@H]1NC(=O)CC(C)(C)C (some centres not stated) | > 10 | > 10 | 2.88 | 3.47 |  |  | > 10
CC1CC(Nc2ncnc3cc(Br)ccc23)CCN1C (configuration not stated) | 1.05 | 1.55 | 1.07 | 1.58 |  |  | > 10
Cc1c(-c2nn(-c3nc(C4CC4)cc(C(F)(F)F)n3)c(-c3cnn(C)c3C)c2Cl)cnn1C | 1.1 | 0.407 | > 10 | > 10 |  |  | > 10
Cc1ccc(-c2cc(O)cc(CC[C@H]3CCCCN3)c2)c(C)n1 | 1.86 | 5.62 | 1.66 | 2.82 |  |  | > 10
Nc1nc(N2CCN(c3ccc(F)c(Cl)c3)CC2)cc([C@H]2C[C@@H](N)C2)n1 | 2.75 | 6.31 | 6.31 | 5.75 |  |  | > 10

The next lines start with results.

IC50 [1, 6] [µM] | IC50 [2, 7] [µM] | IC50 [4] [µM] | IC50 [5] [µM] | IC50 ([1]; erythrocyte) [µM] | IC50 ([2]; erythrocyte) [µM] | SMILES | IC50 at 72 h [3] [µM]
1.66 | 2.88 | 3.02 | 6.31 |  |  | COc1ccc(-c2c(C(F)(F)F)n[nH]c2-c2ccc(OCc3ccccc3F)cc2O)cc1 | > 10
2.57 | 1.35 | > 10 | > 10 |  |  | Cc1ccc(S(=O)(=O)Nc2c(S(=O)(=O)c3ccc(C)cc3)c3nc4ccccc4nc3n2C[C@H]2CCCO2)cc1 | > 10
4.47 | 7.08 | 6.46 | 9.77 |  |  | CCN(CC)CCn1c2ccccc2n2cc(-c3ccc(Br)cc3)nc12 | > 10
2.34 | 4.37 | 2.63 | 3.98 |  |  | CC1(C)Cc2nc3ccccc3c(NCc3ccccc3)c2[C@@H](O)C1 | > 10
2.14 | 3.63 | > 10 | > 10 |  |  | O=c1c2ccccc2nc2cc(-c3ccc(O)cc3)c(-c3ccccc3)nn12 | > 10
1.86 | 9.33 | 5.37 | 3.47 |  |  | Cc1ccc(CC[C@H]2Nc3ccccc3C(c3ccccc3)(c3ccccc3)O2)o1 | > 10
2 | 3.16 | 2.69 | 1 |  |  | Cc1nnc(-c2ccc3ccn(CC(=O)Nc4ccc(F)c(Cl)c4)c3c2)o1 | > 10
3.09 | > 10 | 2.63 | 3.47 |  |  | C=Cn1cc[n+](CC(=O)c2ccc(-c3ccccc3)cc2)c1 | > 10
4.47 | 1.7 | > 10 | > 10 |  |  | COc1ccc(NC(=O)C2(N(Cc3ccccc3)C(=O)Cn3nnc4ccccc43)CCCCC2)cc1 | > 10
1.66 | 3.47 | 3.24 | 8.13 |  |  | Cc1c(C)c2ccc(NC(=O)c3cc4ccccc4o3)cc2[nH]c1=O | > 10
2.63 | 2.75 | 6.46 | 10.7 |  |  | Cc1oc2ncn(CCN3CCCC3)c(=O)c2c1C(=O)Nc1ccc(C#N)cc1 | > 10
1.74 | 3.39 | 2.4 | 2.24 |  |  | Cc1cc(C(=O)N[C@@H](C)c2nc(-c3cccnc3)cs2)cc(O)n1 | > 10
1.55 | 3.98 | 2.88 | 3.8 |  |  | COc1ccc2[nH]c3c(c2c1)CC(C(=O)O)NC3c1ccc(OC)c(CN2CCN(c3ccccc3F)CC2)c1 (configuration not stated) | > 10
8.32 | > 10 | 7.94 | > 10 |  |  | COc1ccc(OC)c(NC(=O)CN2CCc3[nH]c4ccc(F)cc4c(=O)c3C2)c1 | > 10
9.12 | > 10 | > 10 | > 10 |  |  | O=C(CCn1c(=O)[nH]c2ccsc2c1=O)NCc1ccccc1 | > 10
0.589 | > 10 | 2.09 | 2 |  |  | CCOc1ccc2ccccc2c1C(=O)Nc1cc(C)nn1-c1nc2c(c(=O)[nH]1)CCC2 | > 10
3.02 | 4.79 | > 10 | > 10 |  |  | COc1ccc(-c2cc3n(n2)C[C@@](C)(C(=O)NCc2ccccc2OC)N(c2cccc(OC)c2)C3=O)cc1 | > 10
1.29 | 2.69 | 4.27 | 6.17 |  |  | COc1ccc(Nc2nnc(-c3ccc(NC(=O)C(=O)NCCCn4ccnc4)cc3)s2)cc1 | > 10
0.302 | > 10 | 1 | 1.35 |  |  | N#Cc1c(NC(=O)Nc2cn3ccccc3c2C#N)cn2ccccc12 | > 10
1.1 | > 10 | 5.01 | > 10 |  |  | Cc1cc(=O)[nH]c(-n2nc(C3CC3)cc2NC(=O)C(C)(C)Oc2ccc(Cl)cc2)n1 | > 10
2.63 | 4.07 | 2.63 | 2.69 |  |  | O=C(NCCN1CCCC1)c1ccc2nc(-c3ccc(Cl)cc3)cn2c1 | > 10
1.7 | 1.86 | 3.47 | 4.47 |  |  | CC(=O)Nc1ccc(C)cc1S(=O)(=O)N1CC=C(c2c(C)n(Cc3ccccc3C)c3ccccc23)CC1 | > 10
0.00832 | 9.55 | > 10 | 0.0126 |  |  | Cc1nc(C(=O)Nc2[nH]c(=O)ncc2F)c(-c2ccccc2)o1 | > 10
8.13 | > 10 | > 10 | > 10 |  |  | Cc1[nH]c2ncnc(NC(=O)c3cccc(-n4ccnn4)c3)c2c1C | > 10
0.676 | 0.794 | > 10 | > 10 | 1.17 | 0.631 | COc1cccc(-c2nc(C)c(C(=O)Nc3n[nH]c(CC(C)C)n3)s2)c1 | > 10
3.16 | 8.71 | > 10 | 5.75 |  |  | CCNc1ccnc(NCc2nc(-c3cccc(F)c3)c(-c3ccccn3)[nH]2)n1 | > 10
2.82 | > 10 | 3.24 | 3.8 |  |  | CC12CN(S(=O)(=O)c3ccc4c(c3)OCCO4)C3(C(=O)OCc4ccccc4)CC1CCC23C (configuration not stated) | > 10
3.72 | > 10 | 4.57 | 3.55 |  |  | O=C(Nc1ccccc1Cl)N1CCC(N2CCc3sccc3C2)CC1 | > 10
3.24 | 5.13 | 6.31 | 6.31 |  |  | Oc1cccc(CN2CCC3(CC2)C[C@H](c2ccccc2)CN(C2CC2)C3)c1 | > 10
